Experimental data published in US20120003156A1, “METHODS FOR TREATING NEOPLASIA BY INHIBITING LACTATE DEHYDROGENASE AND/OR NICOTINAMIDE PHOSPHORIBOSYLTRANSFERASE” (The Johns Hopkins University, priority 2008, published 2012).
“Also recorded” adds a separate entry of the source.

Legend:
P493 cells [1] = experiment: Conversion of 13C-glucose to 13C-lactate; assay type: cell-based, human
Method: In addition to oxidative stress induced by inhibition of LDHA, it was determined how FX11 affects cellular energy metabolism. […].

[2] = tested on: Ramos Burkitt lymphoma cells; experiment: Cell population growth; assay type: cell-based, human
[3] = tested on: human glioblastoma U-87-MG cells; experiment: Cell growth; assay type: cell-based
GAPDH = GAPDH (Homo sapiens, UniProt P04406); experiment: GAPDH activity and Ki; assay type: biochemical
GAPDH, sequence (P04406 whole entry): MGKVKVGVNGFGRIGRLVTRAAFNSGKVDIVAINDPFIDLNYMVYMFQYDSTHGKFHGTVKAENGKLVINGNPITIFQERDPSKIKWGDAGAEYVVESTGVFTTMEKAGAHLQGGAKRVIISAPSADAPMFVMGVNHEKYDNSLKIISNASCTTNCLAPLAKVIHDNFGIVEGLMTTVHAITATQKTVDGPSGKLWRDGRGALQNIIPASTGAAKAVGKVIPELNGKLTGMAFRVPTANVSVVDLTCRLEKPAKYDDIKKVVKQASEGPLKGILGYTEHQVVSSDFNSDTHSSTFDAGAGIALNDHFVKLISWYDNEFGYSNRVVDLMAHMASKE
Method: The reaction velocity of purified human LDHA or GAPDH was determined by a decrease or increase in absorbance at 340 nm of NADH, respectively. […] The GADPH activity was assessed using the protocol described in Worthington Enzyme Manual: http://www.worthington-biochem.com/GAPD/assay.html with varying concentrations of NAD^+. Ki values were determined from double-reciprocal plots by linear regression analysis using SigmaPlot Enzyme Kinetic software.

AMP kinase (AMPK) = experiment: Immunoblot of phospho-AMPK; assay type: cell-based, human; conditions: 20 hours of exposure
LDHA = LDHA (Homo sapiens, UniProt P00338); experiment: Affinity chromatography of LDHA on Sepharose-immobilized FX11 or E; assay type: binding; conditions: P493 cell lysate; elution with 1 mM NADH
Method: FX11 and E molecules which contain carboxyl groups were coupled to immobilized diaminodipropylamine (DADPA) resins according to the manufacturer's instructions (Pierce). […] An equal amount of cell lysate was loaded onto these beads and eluted with 1 mM NADH after washing with 6 column volumes of high salt (1 M NaCl). LDHA activity was performed from the eluates to assess the binding affinity of the molecules with LDHA.

P493 cells [4] = experiment: Oxygen consumption, Clark-type oxygen electrode; assay type: cell-based, human; conditions: FX11 treatment
Method: Oxygen consumption was measured using a Clark-type oxygen electrode (Oxytherm System, Hansatech Instruments Ltd). 5×10^6 cells in 1 ml medium were placed in the chamber above a membrane which is permeable to oxygen. Oxygen diffuses through the membrane and is reduced at the cathode surface so that a current flows through the circuit which is completed by a thin layer of KCl solution. The current which is generated bears a direct, stoichiometric relationship to the oxygen reduced, and is converted to a digital signal. Determinations were done in triplicate, and the entire experiment was done twice.

LDH = LDH (Homo sapiens, UniProt P00338); experiment: LDH activity, decrease in absorbance at 340 nm of NADH; assay type: biochemical
Method: In other studies, pyruvate and NADH were used as the substrates to test the inhibition of LDH by FX11. […] To further document the selective binding of FX11 versus E to LDHA, affinity chromatography was performed with P493 cell lysate using FX11 or E immobilized on Sepharose beads. […] GAPDH is another pivotal glycolytic enzyme that converts NAD^+ to NADH. The question of whether FX11 could inhibit its NAD^+-dependent conversion of glyceraldehyde-3-phosphate to bis-phosphoglycerate was addressed.

[5] = tested on: P198 human pancreatic cancer cells; experiment: Cell population growth; assay type: cell-based; conditions: 1% O2 vs normoxia
Method: P493 human lymphoma B cells were maintained in RPMI 1640 with 10% fetal bovine serum (FBS) and 1% penicillin-streptomycin. P198 human pancreatic cancer cells; RCC4, RCC4-VHL human renal carcinoma cells; MCF-7 and MDA-MB-453 breast cancer cells were maintained in high glucose (4.5 mg/ml) DMEM with 10% FBS and 1% penicillin-streptomycin. Non-hypoxic cells (20% O2) were maintained at 37° C. in a 5% CO2, 95% in an air incubator. Hypoxic cells (1% O2) were maintained in a controlled atmosphere chamber (PLAS-LABS, Lansing, Mich.) with a gas mixture containing 1% O2, 5% CO2, and 94% N2 at 37° C. for the indicated time. Bright live cells were counted daily in a hemacytometer using trypan blue dye to exclude dead cells. All cells were grown at a concentration of 10^5 cells/ml. All drugs treatment began at day 0.
siRNAs targeting human LDHA (ON-TARGETplus SMARTpool) were purchased from Dharmacon Research Inc. Targeting sequences for LDHA were a pool of the following four target sequences: sequence 1, […]; sequence 2, […]; sequence 3, […]; sequence 4, […]. Accordingly, one of skill in the art would recognize the siRNA sequences corresponding to these targets. For P493 human lymphoma B cells, transfection of siRNAs was performed using an Amaxa Nucleotransfection device according to the manufacturer's instructions. […]

P493 cells [6] = experiment: Annexin V / 7-AAD cell death assay; assay type: cell-based, human; conditions: 24 hours of FX11 treatment
[7] = Expected initial serum level after IP injection; assay type: in vivo; conditions: 42 μg IP; assuming uniform and immediate distribution in the vascular system
Method: Although the renewed interest in the Warburg effect is accompanied by a greater understanding of its molecular underpinnings, targeting it for therapeutic purposes has become a major challenge. […] Of note, primary human lymphomas have been documented to have elevated LDHA expression particularly in hypoxic regions. […] A desired FX11 dose of 42 μg for daily intraperitoneal (IP) injection was calculated. An initial serum level of ˜100 μM was expected, assuming a uniform and immediate distribution in the vascular system without accounting for the drug half-life or drug metabolism.

[8] = Side effects, hematology and blood chemistry in treated animals
[9] = tested on: human pancreatic cell line E3LZ10.7; experiment: Cell growth; assay type: cell-based
c-Myc = experiment: Western blot of c-Myc; assay type: cell-based, human; conditions: 30 μM FX11, 24 hours

## CCCc1c(O)c(O)c(C(=O)O)c2cc(Cc3ccccc3)c(C)cc12 [FX11, 2,3-dihydroxy-6-methyl-7-(phenylmethyl)-4-propylnaphthalene-1-carboxylic acid]
P493 cells [1]
  13C-glutamate: increase
  conversion of 13C-glucose to 13C-lactate: reduced
[2]
  cell population growth inhibition: sensitive to FX11 inhibition in a manner that is diminished by glucose withdrawal; also recorded: dose-dependent manner
[3]
  growth inhibition: dose-dependent manner
GAPDH; 74 μM
  GAPDH activity: not inhibited
GAPDH; GAPDH, Michaelis-Menten kinetics, estimated
  Ki: > 300 µM
AMP kinase (AMPK)
  AMP kinase (AMPK) activation: activation
LDHA
  LDHA activity eluted from affinity beads relative to beads with immobilized E: 4 fold
P493 cells [4]
  oxygen consumption: increased oxygen consumption
LDH; 6 μM FX11, −0.084 without FX11
  slope of decrease in absorbance at 340 nm: −0.029
LDH; 6 μM, pyruvate and NADH as substrates
  LDH activity: completely abrogated
LDH; lactate to pyruvate direction
  concentration inhibiting LDH activity in the conversion of lactate to pyruvate: 34 µM
[5]
  effect of hypoxia on inhibition of P198 cells by FX11: sensitized
P493 cells [6]
  cell death (7-AAD and annexin V labeling): increased
[7]
  initial serum level: ~100 µM
[8]; doses that affected tumor growth in vivo
  kidney (BUN, creatinine) or liver (aspartate aminotransferase, alanine aminotransferase, alkaline phosphatase) toxicity by blood chemistries: did not reveal any evidence
[8]; single agent, five animals studied
  hematology (cytopenia): no cytopenia
[8]; treated animals
  body weight: did not lose weight
  lethargy, ability to eat and drink: no lethargy or the inability to eat and drink
[9]
  growth inhibition: dose-dependent manner
c-Myc
  c-Myc levels: does not affect c-Myc levels
